Experimental data published in patent publication US6492562B1, “Racemic thioesters for production of polyketides” (Kosan Biosciences, Inc., priority 1999, dated 2002).

Tested on: bacteria
Assay: Antibacterial activity
Format: cell-based

COC1(C)CC(O[C@H]2[C@H](C)[C@@H](OC3OC(C)CC(N(C)C)C3O)[C@](C)(O)C[C@@H](C)C(=O)[C@H](C)[C@@H](O)[C@](C)(O)[C@@H](CCF)OC(=O)[C@@H]2C)OC(C)C1O (some centres unmarked) [15-fluoroerythromycin A, 15-Fluoroerythromycin A]
antibacterial activity: strong antibacterial activity

CCC[C@H]1OC(=O)[C@H](C)[C@@H](O[C@H]2C[C@@](C)(OC)[C@@H](O)[C@H](C)O2)[C@H](C)[C@@H](O[C@@H]2O[C@H](C)C[C@H](N(C)C)[C@H]2O)[C@](C)(O)C[C@@H](C)C(=O)[C@H](C)[C@@H](O)[C@]1(C)O [15-methylerythromycin A]
antibacterial activity: strong antibacterial activity
